Measured values from US11471494B2, “Microorganisms programmed to produce immune modulators and anti-cancer therapeutics in tumor cells” (Synlogic Operating Company, Inc., priority 2017, dated 2022).

What was measured:
[1] = test system: kynurenine; test: Tumoral kynurenine levels, CT26 murine tumor model (Example 13); type: in vivo, mouse; details: Study 2; INCB024360 oral gavage twice daily
[2] = biological target: CTLA-4 (Mus musculus, UniProt P09793); details: CTLA-4 from mice; cited from earlier work
[3] = biological target: T1, CTLA-4 (Oryctolagus cuniculus, UniProt P42072); details: CTLA-4 from rabbits; cited from earlier work
T1 sequence (P42072 36-223): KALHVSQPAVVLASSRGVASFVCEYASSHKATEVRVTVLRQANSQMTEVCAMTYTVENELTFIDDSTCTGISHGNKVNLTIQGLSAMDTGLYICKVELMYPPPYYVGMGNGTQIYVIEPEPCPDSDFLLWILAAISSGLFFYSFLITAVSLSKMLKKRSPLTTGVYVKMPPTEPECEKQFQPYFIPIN

[4] = biological target: T2, CTLA-4 (Rattus norvegicus, UniProt Q62859); details: CTLA-4 from rats; cited from earlier work
T2 sequence (Q62859 1-223): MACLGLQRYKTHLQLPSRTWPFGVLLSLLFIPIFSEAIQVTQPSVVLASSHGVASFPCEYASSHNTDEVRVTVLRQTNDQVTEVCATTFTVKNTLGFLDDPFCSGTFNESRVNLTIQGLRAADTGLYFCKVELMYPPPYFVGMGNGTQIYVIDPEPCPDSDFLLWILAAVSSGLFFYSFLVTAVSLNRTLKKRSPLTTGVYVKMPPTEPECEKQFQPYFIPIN

[5] = test system: NK cells, γδT cells and CD8+ T cells; details: upon treatment; cited from earlier work

CTLA-4 (Mus musculus, UniProt P09793), sequence (P09793 36-223): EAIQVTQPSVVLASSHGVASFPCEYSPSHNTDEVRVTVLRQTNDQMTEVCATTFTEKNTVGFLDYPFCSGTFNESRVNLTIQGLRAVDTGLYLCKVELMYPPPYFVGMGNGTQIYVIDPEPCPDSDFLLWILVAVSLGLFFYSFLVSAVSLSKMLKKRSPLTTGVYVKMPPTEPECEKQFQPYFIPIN

NS(=O)(=O)NCCNc1nonc1C(=NO)Nc1ccc(F)c(Br)c1 [INCB024360]
Intratumoral kynurenine levels, SYN2028 compared with INCB024360 [1]: similar

Ipilimumab
cross-reactivity with or binding to CTLA-4 [2]: did not show cross-reactivity with or binding to | cross-reactivity with or binding to CTLA-4 [3]: did not show cross-reactivity with or binding to | cross-reactivity with or binding to CTLA-4 [4]: did not show cross-reactivity with or binding to

recombinant human IL-15: recombinant human IL-15 of a first-in-human clinical trial
expansion of NK cells [5]: 10 fold | proliferation of γδT cells and CD8+ T cells [5]: significantly increased
